Holding throughout (format): cell-based, human
The test system of one series is Jurkat. The experiment in a line: AThyR transgene selection in electroporated Jurkat, eGFP+ viable cells by PI exclusion. The settings on record: anti-folate toxicity. Here is the method: The Amaxa Nucleofector® II (Lonza, Allendale, N.J.) was used to electroporate both Jurkat and human PBMC. Electroporation of Jurkat cells utilized a modified buffer (Chicaybam et al., Proceedings of the National Academy of Sciences of the United States of America 2002, 99(6):3400-3405) containing 5 mM KCl, 15 mM MgCl2, 120 mM Na2HPO4/NaH2PO4, pH 7.2, and 50 mM DMSO, where 10^6 Jurkat cells per cuvette were electroporated using program T-14 before immediate transfer to CM. The addition of drug occurred 48 hours after electroporation and cell culture remained undisturbed until sampling for gene expression on days 10-12 post electroporation. Human PBMC electroporation followed a previously described protocol (Rushworth et al., supra). […]
To test the enhanced survival of each AThyR, constructs individually expressing DHFR^FS, TYMS^SS, and NeoR were ligated into the same backbone containing Sleeping Beauty (SB) transposable elements upstream of eGFP (FIG. 1B), eGFP was used to track the predominance of surviving genetically-modified T cells. […] Jurkat were assessed for eGFP expression in viable cells by propidium iodide (PI) exclusion on day 10-12 (FIG. 1C). […] Overall survival and mean fluorescence intensity (MFI) of eGFP are also given in FIG. 2AI and AII, respectively.

A further series has as its system Treg. Nature of the series: Sorted Treg and Teff treated with drug for 7 days, co-cultured with AaPC to Day 21. The settings on record: for Expression of CD25, CTLA-4, or loss of IL-2: Day 21; for Expression of Treg-specific marker LAP: Day 21, early drug treatment. The source says: Healthy donor derived peripheral blood from MDACC Blood Bank, Houston, Tex., was subjected to density gradient centrifugation to isolate mononuclear cells which were either rested in complete media (CM) or frozen as previously outlined. The use of rested or frozen peripheral blood derived mononuclear cells (PBMC) is outlined in each experiment. T cells from PBMC were stimulated using thawed OKT3 antibody-loaded K562 clone #4, an activating and propagating cell (AaPC). See Singh H, et al, PloS one 2013, 8(5). The presence of mycoplasma was tested in AaPC before stimulation of T cells. Cell counting was accomplished by 0.1% Trypan Blue (Sigma-Aldrich, T8154) exclusion using automated cell counting (Nexcelcom, Lawrence, Mass.). Cell Isolation was accomplished using magnetic bead based sorting with the CD4+, CD25+ Regulatory T Cell Isolation Kit following the manufacturer's instructions (Miltenyi Biotec, San Diego, Calif., 130-091-301). Briefly, CD4^+ T cells were negatively selected before sorting one time with anti-CD25 beads was used to differentiate between effector T cells (CD25^neg) and T^reg (CD25^pos).
Sorted Treg Differentiate the Effects of MTX, 5-FU, and G418 on Selection in Bulk PBMC. Magnetic sorting for CD4 and CD25 expressing PBMC yielded a CD4+ CD25+ population that is widely considered to contain Treg, and a CD25neg population of effector T cells (Teff). See Miyara M. et al., Immunity 2009, 30(6):899-911. These populations were treated with the same concentrations of MTX, 5-FU, G418, or no treatment, as above, for the first 7 days of co-culture with AaPC. After this period of time, co-culture continued without drug by stimulating with AaPC every 7 days until Day 21. Cells were assayed at this time for expression of CD25, CTLA-4, LAP, and IL-2, as before. The experimental outline can be seen in FIG. 15A. A [^3H] thymidine incorporation assay was also performed to determine the effect of each drug on the functionality of propagated Treg.

The subject of a further series is PBMC. As to the method: (§1) Culture Conditions: Acellular stimulation was accomplished as previously described using soluble anti-CD3—30 ng/mL, anti-CD28—100 ng/mL, and human IL-2—50 IU/mL, as previously described. […] Acellular stimulation experiments received addition of toxic drug or treatment on the same day as stimulation.
Drug Selection of TCD4, FoxP3 by MTX Occurs in Part Through Toxicity. In order to determine how MTX contributes to the selection of TCD4, FoxP3, freshly derived PBMC were stimulated with anti-CD3/CD28 antibodies and IL-2 in the presence of cytotoxic drugs or lethal γ-irradiation. After 7 days there was a significant difference in survival markers Annexin V and 7-AAD in stimulated T cells receiving any cytotoxic insult with stimulation (FIG. 1B-I). The selection of TCD4, FoxP3 was not as consistent as cytotoxicity. […] With the exception of ribosomal elongation inhibitor G418, each cytotoxic treatment appeared to increase the percentage of surviving TCD4, FoxP3. See Bar-Nun S. et al., Biochimica et biophysica acta 1983, 741(1):123-127. […] Without wishing to be bound by theory, this pathway is likely related to the reduced proliferation rate of Treg, and appears to be ribosomally mediated as G418 can inhibit this general trend of increasing TCD4, FoxP3 percentage. See Cao M. et al., International journal of radiation biology 2011, 87(1):71-80.

For series [1], the system named is TCD4, FoxP3. Nature of the series: Selection or depletion of TCD4, FoxP3 in PBMC stimulated with anti-CD3/CD28 and IL-2 in presence of drug. The settings on record: for Selection of TCD4, FoxP3 in surviving population at lethal dose: freshly derived PBMC, day 7; for Selection or depletion of TCD4, FoxP3, dose dependence: thawed PBMC, 7 days. Here is the method:
as §1
Cultured T cells were washed in FACS staining solution[95] before surface antibody staining was performed in FACS staining solution with fluorochrome-conjugated antibodies at 4° C. for at least 30 minutes. Intracellular transcription factor and cytokine staining utilized the FoxP3/transcription factor staining buffer set manufacturer's protocol (eBioscience, 00-5523-00), and was performed following surface staining. The BD FACSCalibur (BD Biosciences) analyzed most samples expressing FoxP3. Flow cytometry data analysis utilized FlowJo v 10.0.5 (Tree Star Inc., Ashland, Oreg.). Flow cytometric imaging of cells stained for phosphorylated antigens was accomplished using the ImageStreamX Mark II (Amnis, Seattle, Wash.) with the following protocol; after surface staining, samples were fixed in 100% methanol (Sigma) for 1 hour at 4° C. before washing and staining in FoxP3/transcription factor staining buffer set wash buffer as outlined by the manufacturer's protocol. Analysis of image cytometry data utilized Amnis IDEAS v 6.0.
Drug Selection of TCD4, FoxP3 by MTX Occurs in Part Through Toxicity. In order to determine how MTX contributes to the selection of TCD4, FoxP3, freshly derived PBMC were stimulated with anti-CD3/CD28 antibodies and IL-2 in the presence of cytotoxic drugs or lethal γ-irradiation. […] See Bar-Nun S. et al., Biochimica et biophysica acta 1983, 741(1):123-127. […] See Cao M. et al., International journal of radiation biology 2011, 87(1):71-80.

The subject of another series is Teff. Nature of the series: [3H] thymidine incorporation suppression assay, treated Treg mixed with untreated Teff. The following applies: 72 hour suppression assay. As to the method: A thymidine incorporation assay was performed with anti-CD3/CD28 and IL-2 used to stimulate each well containing 2*10^5 viable cells. Varying ratios of effector T cells (Teff) to Treg were combined in each well and all wells were run in triplicate in U-bottom 96 well plates. At 48 hours 1 μCi [^3H] Thymidine (Perkin-Elmer, Waltham, Mass.) was added to each well, and 24 hours later the cells were assessed for radioactivity on a Top Count NXT (Perkin-Elmer). Treg mediated suppression of growth was determined by the following equation: (No Treatment Teff [cpm]−(Treg & No Treatment Teff [cpm]))/No Treatment Teff [cpm].

In series [2] the test system is TCD4, FoxP3. Nature of the series: Depletion of TCD4, FoxP3 in resting, unstimulated PBMC. The source says:
Representative flow diagrams of resting PBMC in FIG. 14D—upper panel show the loss in expression of FoxP3 for CD4+ T cells after treatment with G418. […] Thus, […] TCD4, FoxP3 are depleted following treatment with aminoglycoside G418.

Entries after “also recorded” stand apart in the source; their conditions may differ. Like-named read-outs stand apart in the source and are kept apart here.

For the compound `CN(Cc1cnc2nc(N)nc(N)c2n1)c1ccc(C(=O)N[C@@H](CCC(=O)O)C(=O)O)cc1` [MTX, methotrexate], the “Relative toxicity to T cells” value in the series with Jurkat was “more toxic to T cells than Pem”. In the series on Treg, the “Expression of CD25, CTLA-4, or loss of IL-2” value is reported as “no significant difference” and the “Expression of Treg-specific marker LAP” value is “significantly increased”. For the same compound, in the series with PBMC, the “Cytotoxicity, dose dependence” value is listed as “cytotoxic at all doses tested”. In the series with TCD4, FoxP3 [1], the “Selection of TCD4, FoxP3 in surviving population at lethal dose” value (from here on “Selection of TCD4, FoxP3”) is “Significant increases” and the “Selection or depletion of TCD4, FoxP3, dose dependence” value (shortened to “Selection or depletion of TCD4, FoxP3”) is given as “significant elevation of TCD4, FoxP3, at lower doses”. Moreover, the “Suppression by treated Treg above untreated Treg” value in the series with Teff is on record as “improved suppression”.

With `CO[C@H]1C[C@@H]2CC[C@@H](C)[C@@](O)(O2)C(=O)C(=O)N2CCCC[C@H]2C(=O)O[C@H]([C@H](C)C[C@@H]2CC[C@@H](O)[C@H](OC)C2)CC(=O)[C@H](C)/C=C(\C)[C@@H](O)[C@@H](OC)C(=O)[C@H](C)C[C@H](C)/C=C/C=C/C=C/1C` [Rapamycin], in the series with PBMC, the “Cytotoxicity, dose dependence” value was “only occurred at the highest doses”.

As to `O=c1[nH]cc(F)c(=O)[nH]1` [5-FU, 5-fluorouracil], in the series on Treg, the “Expression of CD25, CTLA-4, or loss of IL-2” value is recorded as “no significant difference” and the “Expression of Treg-specific marker LAP” value is recorded as “significantly increased”. The “Selection of TCD4, FoxP3” value in the series on TCD4, FoxP3 [1] was “Significant increases”. Also, the “Suppression by treated Treg above untreated Treg” value with Teff is “improved suppression”.

Take `CN[C@@H]1[C@@H](O)[C@@H](O[C@@H]2[C@@H](O)[C@H](O[C@H]3O[C@H]([C@@H](C)O)[C@@H](O)[C@H](O)[C@H]3N)[C@@H](N)C[C@H]2N)OC[C@]1(C)O` [G418]: the “Depletion of TCD4, FoxP3 under resting conditions” value with TCD4, FoxP3 [2] (PBMC rested in CM 9 days) is “Significant depletion”. For the same compound, in the series with TCD4, FoxP3 [2] (resting PBMC, 9 days), the “Depletion of CD4+, FoxP3+, Ki-67+ cells” value is on record as “significant G418 mediated depletion” and the “Depletion of CD4+, FoxP3+, Ki-67neg cells” value is given as “not significantly depleted”. In addition, the “Surviving TCD4, FoxP3 in the Treg compartment” value with Treg (Day 21, drug for first 7 days) is listed as “persistently decreased surviving Treg”. In addition, the “Treg markers (CD25, CTLA-4, decreased IL-2, LAP) with FoxP3 expression” value in the series on Treg (after stimulation on day 21) is listed as “decreased”. Besides, the “Cytotoxicity, dose dependence” value in the series on PBMC (thawed PBMC, 7 days) is recorded as “significantly cytotoxic at all doses tested”. Moreover, in the series on TCD4, FoxP3 [1], the “Selection of TCD4, FoxP3” value is on record as “depleted” and the “Selection or depletion of TCD4, FoxP3” value is recorded as “significantly depleted TCD4, FoxP3 at two moderate drug doses; also recorded: Depletion”.

Regarding `Cc1c(N)nc([C@H](CC(N)=O)NC[C@H](N)C(N)=O)nc1C(=O)N[C@H](C(=O)N[C@H](C)[C@@H](O)[C@H](C)C(=O)N[C@H](C(=O)NCCC1=N[C@@H](c2nc(C(=O)NCCCCN=C(N)N)cs2)CS1)[C@@H](C)O)[C@@H](O[C@@H]1O[C@@H](CO)[C@@H](O)[C@H](O)[C@@H]1O[C@H]1O[C@H](CO)[C@@H](O)[C@H](OC(N)=O)[C@@H]1O)c1cnc[nH]1` [Zeocin], the “Selection or depletion of TCD4, FoxP3” value with TCD4, FoxP3 [1] is reported as “insignificant”.

For the compound gentamicin, in the series on TCD4, FoxP3 [2] (7 days), the “Depletion of TCD4, FoxP3 in resting PBMC” value was “depletion of TCD4, FoxP3”.

The values above are taken from patent publication US10808230B2, “Selection methods for genetically-modified T cells” (BOARD OF REGENTS, THE UNIVERSITY OF TEXAS SYSTEM, priority 2015, dated 2020).
